Assays:
[1] = system: ACh; experiment: Brain ACh level, Amplex Red kit, APP/PS1 mice; format: in vivo, mouse; details: AP5 40 mg/kg intragastric once daily 5 months, vs APP/PS1 mice
Description: (§1) APP/PS1 mice of ages 6 months were randomly divided into vehicle (APP/PS1, n = 10) and treatment groups (AP5, n = 10), which were intragastrically administered with AP5 (40 mg/kg) once daily for consecutive 5 months. AP5 was dissolved in distilled water containing 1% sodium carboxymethyl cellulose.
The brain samples were weighed, homogenized in PBS solution, and centrifuged for 20 min at 25,000 g at 4°C. Amplex® Red acetylcholinesterase/acetylcholine assay kit (A12217, Thermo Fisher Scientific) was used to detect AChE activity and ACh levels in the supernatant in accordance with the manufacturer’s instructions.
Briefly, for ACh assay, the reactions were started by adding 100 µL of the Amplex Red reagent, HRP, choline oxidase, AChE working solution to each microplate well containing the controls and samples. For AChE assay, detection cocktail solution containing ACh, Amplex Red, choline oxidase and horseradish peroxidase was added toeach well. Assay plates were incubated at room temperature for 30 min and protected from light, followed by detecting fluorescence of resorufin (λex = 544 nm, λem = 590 nm) in a fluorescence microplate reader.
After deparaffinization and antigen retrieval, the sections were incubated with 0.3% hydrogen peroxide (H2O2) to inhibit endogenous peroxidase activity for 20 min and blocked by goat serum for 30 min at37°C. […]

[2] = system: spatial learning and memory; experiment: Morris water maze; format: in vivo, APP/PS1 mice; details: after 5 months of treatment
Description: as §1
To investigate whether AP5 treatment plays a key role in cognition improvement of APP/PS1 mice models, the five different behavioral tests were sequentially carried out in the following order: open field, novel object recognition task, spatial object-location task, Y-maze, and Morris water maze (MWM). AP5 was also administered daily during the test periods. A set of video analysis systems (TopScan, CleverSys, United States) was used throughout the behavioral tests. […]
the familiar object) / total exploration time for the novel and familiar object.
For the spatial object location task (an object moved to a new location), mice first explored the two objects placed in two corners of the open field for 5 min in training period. After 1 h or 24 h, the mice received a 5 min retention trial with a new spatial configuration with an object moved from one corner to the opposite corner of the open field.The discrimination index was calculated and defined as: (time spent exploring the displaced object-time spent exploring nondisplaced objects) / total exploration time for the two objects during the 5 min retention trial.
Work on spatial recognition memory was tested by Y-maze. The symmetrical Y-maze consisted of three arms joined in the middle to form a Y shape. […] The ratio between the distance spent in the novel arm and the totaldistance travelled in the maze was quantified as preference index. […]
guided to platform and allowed to stay on it for 30 s. The time (escape latency) for each mouse to find the way and reach the target platform was analyzed. […] The parameters measured during the probe trialincluded number of platform crossing and time spent in the target quadrant. […]

[3] = system: C3 within astrocytes; experiment: C3 and GFAP co-immunostaining (A1 astrocyte marker); format: in vivo; details: AP5-treated vs APP/PS1 mice
Description: as §1
The fixed hemibrains were paraffin-embedded and sectioned in the coronal plane. The slices were deparaffinized with xylene and rehydrated by a series of gradient alcohols. Antigen retrieval through microwave boiling was performed with 10 mM sodium citrate solution at pH 6.0. The slices were cooled down to room temperature and then rinsed in PBS solution. […]
(1:100, BAF2655, R&D, Minneapolis, MN, USA). […] For the quantification of Aβ plaque-associated microglia and astrocyte, Iba1- and GFAP-immunopositive cells around plaques were counted. On each slide, ten plaques were randomly determined and the microglia (nuclei) in the immediate vicinity (two times the plaque diameter) of each plaque were counted. For colocalization of PSD95 and synaptophysin, images were analyzed with the puncta analyzer plugin with a minimum pixel specification of 4 in Image Jand thresholding was consistent for every image. […]
anti-synaptophysin (1:1000, 67864-1-lg, Proteintech) overnight at 4°C. […] Densitometric analysis was performed using Quantity One software (Bio-Rad, Berkeley, CA, USA). […]

## CCN(C)C(=O)Oc1cccc(/C=C2\Cc3cc(OC)c(OC)cc3C2=O)c1 [AP5, (E)-3-((5,6-dimethoxy-1-oxo-1,3-dihydro-2H-inden-2-ylidene)-methyl)phenylethyl(methyl)carbamate]
[1]
  ACh levels in cortex and hippocampus: elevated levels of ACh
[2]; MWM probe trial
  platform crossing number: performed much better
  time spent in the target quadrant: performed much better
[2]; MWM
  escape latency: performed much better
[3]
  C3-positive area within the astrocytes: markedly reduced
